Experimental data: patent publication US20050191245A1, “Nasal administration of calcium channel, blockers for treatment of hypertension and other cardiovascular disorders” (priority 2004, published 2005)
Where two headings read alike, the source gives them in different places.

Assays:
[1] = tested on: male Sprague-Dawley rats
[2] = tested on: male Sprague-Dawley rats; settings: nasal, 2%, 20 uL/nare; vehicle cyclodextrin; urethane-anesthetized rats; FIG. 2
Description: Mean arterial blood pressure was measured using a Digi-Med Blood Pressure Analyzer. The rats were anesthetized with urethane (2 g/kg, IP) and the left carotid artery was cannulated. A baseline blood pressure was recorded then the drug (or vehicle) was administered and blood pressure recorded for 45-60 minutes.

total distance traveled, compared to no treatment group ([1]; rat, in vivo) | total distance traveled, drug treated groups compared to vehicle treated group ([1]; rat, in vivo) | Compound | effect on mean arterial blood pressure compared to vehicle treated group [2] | total distance traveled, drug treated groups compared to vehicle treated group ([1]; nasal, 2%, 20 uL/nare, vehicle distilled water, an hour after administration, FIG. 5)
statistically significant difference | no significant difference | C(=C\c1ccccc1)/CN1CCN(C(c2ccccc2)c2ccccc2)CC1 [cinnarizine] | Only the nifedipine group at 45 minutes was statistically significantly different | –
– | no significant difference | COc1ccc([C@@H]2Sc3ccccc3N(CCN(C)C)C(=O)[C@@H]2OC(C)=O)cc1 [diltiazem] | – | –
– | – | COc1ccc(CCN(C)CCCC(C#N)(c2ccc(OC)c(OC)c2)C(C)C)cc1OC (centres unmarked) [verapamil] | – | no significant difference
